Data set [1] concerns the target T1, Full length BTK (C-terminal NanoLuc fusion) (Homo sapiens, UniProt Q06187).
T1 construct: Full length BMX and BTK was cloned into pFC32K; expressed in transfected cells; host or cells: HEK293T
The experiment in a line: Cellular NanoBRET target engagement assay in HEK293T cells. Format: cell-based. Particulars: 0.5 µM Tracer K5, 2 h incubation. Here is the method:
(§1) Full length BMX and BTK was cloned into pFC32K (Promega, Madison, WI, USA) for expression of a C-terminal NanoLuc fusion. The plasmids were transfected into HEK293T cells cultured in DMEM (Gibco, Waltham, MA, USA) supplemented with 10% fetal bovine serum (Gibco, Waltham, MA, USA) and Penicillin/Streptamycin (Gibco, Waltham, MA, USA). NanoBRET assays were performed using the protocol published previously. Briefly, after transfection and 20 h incubation cells were harvested and subsequently resuspended in OptiMEM (Gibco, Waltham, MA, USA). Cells were aliquoted onto […] (Greiner, Kremsmünster, Austria), and inhibitors as well as 0.5 µM Tracer K4 (Promega) for BMX or 0.5 µM Tracer K5 (Promega, Madison, WI, USA) for BTK were added using an ECHO acoustic dispenser. The plates were incubated at 37 °C with 5% CO2 for 2 h prior to the addition of both NanoBRET NanoGlo substrate (Promega, Madison, WI, USA) and extracellular NanoLuc inhibitor. BRET luminescence (450 nm for donor emission and 610 nm for BRET signal) was measured using PHERAstar FSX plate reader (BMG Labtech, Ortenberg, Germany). Milli-BRET units (mBU) were calculated as a ratio between BRET signal and the overall measured luminescence. A dose–response fitting was applied and IC50 values were calculated using the Prism software. […] Experiments were performed as tripicates and repeated at least three times.

Data set [2] concerns the target T2, Full length BMX (C-terminal NanoLuc fusion) (Homo sapiens, UniProt P51813).
T2 construct: Full length BMX and BTK was cloned into pFC32K; expressed in transfected cells; host or cells: HEK293T
T2 sequence (P51813 1-675): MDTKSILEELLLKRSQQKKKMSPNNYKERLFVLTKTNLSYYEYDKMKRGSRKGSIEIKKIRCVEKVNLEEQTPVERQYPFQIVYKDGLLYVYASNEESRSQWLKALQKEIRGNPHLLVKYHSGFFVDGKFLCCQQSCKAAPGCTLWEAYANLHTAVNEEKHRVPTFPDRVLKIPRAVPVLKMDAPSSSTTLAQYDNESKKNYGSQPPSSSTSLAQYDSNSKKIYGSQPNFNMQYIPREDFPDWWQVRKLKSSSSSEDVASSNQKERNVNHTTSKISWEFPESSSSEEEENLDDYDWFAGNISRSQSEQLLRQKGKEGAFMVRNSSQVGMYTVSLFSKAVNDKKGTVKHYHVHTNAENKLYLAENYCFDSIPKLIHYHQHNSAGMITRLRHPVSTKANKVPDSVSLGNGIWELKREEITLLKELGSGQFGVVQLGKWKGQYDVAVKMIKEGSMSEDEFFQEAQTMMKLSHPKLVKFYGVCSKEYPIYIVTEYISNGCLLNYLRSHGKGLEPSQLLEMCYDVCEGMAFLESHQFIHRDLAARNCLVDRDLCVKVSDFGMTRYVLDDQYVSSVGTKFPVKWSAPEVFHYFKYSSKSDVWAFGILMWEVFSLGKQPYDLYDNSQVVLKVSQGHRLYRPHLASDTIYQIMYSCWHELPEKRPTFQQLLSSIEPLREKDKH
Described as above. The settings on record: 0.5 µM Tracer K4, 2 h incubation. Format: cell-based. The protocol: as §1

The subject of data set [3] is kinases harboring an αD-1 cysteine. Nature of the data set: Profiling at 200 nM against kinases with an αD-1 cysteine. The class given is biochemical. Particulars: 200 nM compound. Here is the method:
(§2) If not mentioned differently, in vitro profiling of compounds was performed at Reaction Biology Corporation using the HotSpot™ assay platform.

In a further data set the target is T3, JAK1 (Homo sapiens, UniProt P23458).
T3 construct: purchased Reaction Biology Corporation
The experiment in a line: Radiometric kinase assay (Reaction Biology HotSpot). The class given is biochemical. Particulars: five-dose singlicate, [ATP] = 10 μM. Here is the method:
as §2

The target in the next data set is T4, TYK2 (Homo sapiens, UniProt P29597).
T4 construct: purchased Reaction Biology Corporation
The description is as above. The class given is biochemical. Particulars: five-dose singlicate, [ATP] = 10 μM. The protocol: as §2

In the next data set the target is T5, JAK2 (Homo sapiens, UniProt O60674).
T5 construct: purchased Reaction Biology Corporation
Described as above. The class given is biochemical. The settings on record: five-dose singlicate, [ATP] = 10 μM. Here is the method:
as §2

For a further data set, the target named is T6, ITK (Homo sapiens, UniProt Q08881).
T6 construct: purchased Reaction Biology Corporation
T6 sequence (Q08881 1-620): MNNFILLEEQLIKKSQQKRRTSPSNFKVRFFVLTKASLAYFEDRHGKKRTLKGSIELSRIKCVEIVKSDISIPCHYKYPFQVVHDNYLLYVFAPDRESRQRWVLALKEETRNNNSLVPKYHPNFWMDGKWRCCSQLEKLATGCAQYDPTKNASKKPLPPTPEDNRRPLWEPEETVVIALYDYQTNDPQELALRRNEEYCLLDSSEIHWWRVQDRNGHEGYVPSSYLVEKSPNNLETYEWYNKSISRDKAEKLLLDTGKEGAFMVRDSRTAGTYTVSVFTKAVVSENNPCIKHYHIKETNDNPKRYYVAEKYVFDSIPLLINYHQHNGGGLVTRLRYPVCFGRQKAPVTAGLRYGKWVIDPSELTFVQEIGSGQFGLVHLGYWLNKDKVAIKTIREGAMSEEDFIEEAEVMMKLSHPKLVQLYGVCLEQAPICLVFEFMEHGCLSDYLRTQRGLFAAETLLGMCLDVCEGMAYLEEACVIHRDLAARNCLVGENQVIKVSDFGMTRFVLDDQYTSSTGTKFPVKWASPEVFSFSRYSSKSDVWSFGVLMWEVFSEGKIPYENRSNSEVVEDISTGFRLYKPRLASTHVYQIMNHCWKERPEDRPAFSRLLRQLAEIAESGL
Described as above. Format: biochemical. The settings on record: 200 nM compound, duplicate mean, [ATP] = 10 μM; read-out: Residual Activity @ 200 nM, ITK. The protocol: as §2

The test system of a further data set is glutathione (GSH). Nature of the data set: Glutathione reactivity / stability against GSH. The class given is physicochemical. Particulars: glutathione (GSH) in PBS buffer, pH 7.4, 5 mM GSH, read-out: half-life (t1/2) against glutathione (converted). The protocol:
A total of 5 µL of a 10 mM compound stock solution in DMSO were added to 5 µL of a 4 mM Indoprofen solution in PBS as internal standard. The mixture was diluted with PBS buffer to a total volume of 1 mL of component A. Additionally, a freshly prepared solution of 10 mM GSH in PBS buffer was used as component B. A total of 250 µL of each component was mixed and immediately subjected to HPLC analysis for t^0 measurement. The probes were stored at 40 °C in between the respective injections. t1/2 was determined by plotting natural logarithm of AUC/AUC0 against time.

Structures are written as SMILES.

T1 sequence (Q06187 whole entry, the tested form may be a part): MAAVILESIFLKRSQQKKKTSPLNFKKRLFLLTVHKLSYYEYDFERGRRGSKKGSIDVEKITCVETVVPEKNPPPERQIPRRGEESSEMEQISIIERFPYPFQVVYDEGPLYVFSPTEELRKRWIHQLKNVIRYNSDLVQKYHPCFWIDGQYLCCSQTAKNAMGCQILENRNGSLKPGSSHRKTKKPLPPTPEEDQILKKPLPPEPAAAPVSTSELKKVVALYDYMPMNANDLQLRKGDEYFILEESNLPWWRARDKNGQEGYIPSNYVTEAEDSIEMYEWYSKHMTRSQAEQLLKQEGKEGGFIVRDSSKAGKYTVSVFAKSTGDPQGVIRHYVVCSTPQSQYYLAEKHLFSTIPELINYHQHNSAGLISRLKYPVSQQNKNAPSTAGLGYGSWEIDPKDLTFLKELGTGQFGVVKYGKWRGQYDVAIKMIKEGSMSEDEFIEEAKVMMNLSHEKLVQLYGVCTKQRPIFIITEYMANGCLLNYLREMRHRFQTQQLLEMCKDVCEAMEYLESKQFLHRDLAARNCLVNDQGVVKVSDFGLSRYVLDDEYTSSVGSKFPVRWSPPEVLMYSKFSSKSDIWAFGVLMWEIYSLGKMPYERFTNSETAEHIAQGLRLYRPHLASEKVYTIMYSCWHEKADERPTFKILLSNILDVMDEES
T5 sequence (O60674 whole entry): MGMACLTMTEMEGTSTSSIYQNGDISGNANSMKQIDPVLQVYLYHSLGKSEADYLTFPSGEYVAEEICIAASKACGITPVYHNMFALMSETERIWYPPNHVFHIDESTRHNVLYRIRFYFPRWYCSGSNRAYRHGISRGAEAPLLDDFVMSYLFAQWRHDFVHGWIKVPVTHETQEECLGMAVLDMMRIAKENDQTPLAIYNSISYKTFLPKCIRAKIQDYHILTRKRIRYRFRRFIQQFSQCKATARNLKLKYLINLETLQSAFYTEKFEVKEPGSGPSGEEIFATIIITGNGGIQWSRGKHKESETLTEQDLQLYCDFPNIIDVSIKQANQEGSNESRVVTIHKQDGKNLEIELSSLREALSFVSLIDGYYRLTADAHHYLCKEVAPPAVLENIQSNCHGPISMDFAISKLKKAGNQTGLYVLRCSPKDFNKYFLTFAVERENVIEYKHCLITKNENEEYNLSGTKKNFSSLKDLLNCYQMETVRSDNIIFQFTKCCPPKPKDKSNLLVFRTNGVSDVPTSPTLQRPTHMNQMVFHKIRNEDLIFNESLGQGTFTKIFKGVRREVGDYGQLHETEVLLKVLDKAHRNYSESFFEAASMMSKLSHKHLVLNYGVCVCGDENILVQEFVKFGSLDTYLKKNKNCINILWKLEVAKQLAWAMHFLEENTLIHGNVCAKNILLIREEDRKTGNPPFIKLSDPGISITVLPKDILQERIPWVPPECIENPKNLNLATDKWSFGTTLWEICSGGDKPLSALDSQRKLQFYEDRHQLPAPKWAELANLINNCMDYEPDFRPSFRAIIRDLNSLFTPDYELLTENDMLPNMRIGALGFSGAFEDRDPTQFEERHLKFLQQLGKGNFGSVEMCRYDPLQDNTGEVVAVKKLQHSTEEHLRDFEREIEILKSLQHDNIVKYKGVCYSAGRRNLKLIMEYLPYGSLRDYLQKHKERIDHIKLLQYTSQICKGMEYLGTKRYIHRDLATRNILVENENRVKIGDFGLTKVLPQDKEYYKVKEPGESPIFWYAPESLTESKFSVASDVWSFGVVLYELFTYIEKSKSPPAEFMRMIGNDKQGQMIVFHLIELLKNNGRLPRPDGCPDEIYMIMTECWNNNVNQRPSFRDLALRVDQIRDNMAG
T3 sequence (P23458 whole entry): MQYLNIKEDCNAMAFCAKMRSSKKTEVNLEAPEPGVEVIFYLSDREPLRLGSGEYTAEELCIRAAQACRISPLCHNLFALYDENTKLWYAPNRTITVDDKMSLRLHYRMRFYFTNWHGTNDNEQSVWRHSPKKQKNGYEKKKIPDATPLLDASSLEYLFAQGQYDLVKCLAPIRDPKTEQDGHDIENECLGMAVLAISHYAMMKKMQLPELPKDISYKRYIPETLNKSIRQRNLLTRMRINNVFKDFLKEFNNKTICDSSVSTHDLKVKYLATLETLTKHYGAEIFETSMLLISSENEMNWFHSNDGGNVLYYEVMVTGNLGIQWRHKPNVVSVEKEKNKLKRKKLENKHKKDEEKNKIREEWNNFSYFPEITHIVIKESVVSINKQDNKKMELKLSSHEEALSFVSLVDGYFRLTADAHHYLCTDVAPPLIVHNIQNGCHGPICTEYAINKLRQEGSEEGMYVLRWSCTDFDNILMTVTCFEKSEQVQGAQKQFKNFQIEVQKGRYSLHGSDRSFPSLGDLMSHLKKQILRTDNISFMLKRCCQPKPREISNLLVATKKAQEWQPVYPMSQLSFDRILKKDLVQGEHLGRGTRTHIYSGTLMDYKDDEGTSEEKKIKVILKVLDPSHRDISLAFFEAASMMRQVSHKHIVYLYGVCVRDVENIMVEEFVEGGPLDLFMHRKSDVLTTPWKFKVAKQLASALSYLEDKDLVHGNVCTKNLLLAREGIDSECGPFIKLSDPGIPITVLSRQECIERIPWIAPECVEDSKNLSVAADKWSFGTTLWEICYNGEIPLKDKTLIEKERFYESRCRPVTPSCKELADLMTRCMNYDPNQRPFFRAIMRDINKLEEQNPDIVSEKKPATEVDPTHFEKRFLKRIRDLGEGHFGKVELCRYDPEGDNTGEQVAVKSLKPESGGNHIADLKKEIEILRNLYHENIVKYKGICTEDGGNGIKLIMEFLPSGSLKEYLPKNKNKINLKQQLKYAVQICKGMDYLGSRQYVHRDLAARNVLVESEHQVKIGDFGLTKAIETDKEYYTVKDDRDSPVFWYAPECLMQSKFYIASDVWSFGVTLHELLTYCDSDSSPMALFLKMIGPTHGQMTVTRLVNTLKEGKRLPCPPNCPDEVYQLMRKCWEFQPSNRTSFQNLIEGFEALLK
T4 sequence (P29597 whole entry): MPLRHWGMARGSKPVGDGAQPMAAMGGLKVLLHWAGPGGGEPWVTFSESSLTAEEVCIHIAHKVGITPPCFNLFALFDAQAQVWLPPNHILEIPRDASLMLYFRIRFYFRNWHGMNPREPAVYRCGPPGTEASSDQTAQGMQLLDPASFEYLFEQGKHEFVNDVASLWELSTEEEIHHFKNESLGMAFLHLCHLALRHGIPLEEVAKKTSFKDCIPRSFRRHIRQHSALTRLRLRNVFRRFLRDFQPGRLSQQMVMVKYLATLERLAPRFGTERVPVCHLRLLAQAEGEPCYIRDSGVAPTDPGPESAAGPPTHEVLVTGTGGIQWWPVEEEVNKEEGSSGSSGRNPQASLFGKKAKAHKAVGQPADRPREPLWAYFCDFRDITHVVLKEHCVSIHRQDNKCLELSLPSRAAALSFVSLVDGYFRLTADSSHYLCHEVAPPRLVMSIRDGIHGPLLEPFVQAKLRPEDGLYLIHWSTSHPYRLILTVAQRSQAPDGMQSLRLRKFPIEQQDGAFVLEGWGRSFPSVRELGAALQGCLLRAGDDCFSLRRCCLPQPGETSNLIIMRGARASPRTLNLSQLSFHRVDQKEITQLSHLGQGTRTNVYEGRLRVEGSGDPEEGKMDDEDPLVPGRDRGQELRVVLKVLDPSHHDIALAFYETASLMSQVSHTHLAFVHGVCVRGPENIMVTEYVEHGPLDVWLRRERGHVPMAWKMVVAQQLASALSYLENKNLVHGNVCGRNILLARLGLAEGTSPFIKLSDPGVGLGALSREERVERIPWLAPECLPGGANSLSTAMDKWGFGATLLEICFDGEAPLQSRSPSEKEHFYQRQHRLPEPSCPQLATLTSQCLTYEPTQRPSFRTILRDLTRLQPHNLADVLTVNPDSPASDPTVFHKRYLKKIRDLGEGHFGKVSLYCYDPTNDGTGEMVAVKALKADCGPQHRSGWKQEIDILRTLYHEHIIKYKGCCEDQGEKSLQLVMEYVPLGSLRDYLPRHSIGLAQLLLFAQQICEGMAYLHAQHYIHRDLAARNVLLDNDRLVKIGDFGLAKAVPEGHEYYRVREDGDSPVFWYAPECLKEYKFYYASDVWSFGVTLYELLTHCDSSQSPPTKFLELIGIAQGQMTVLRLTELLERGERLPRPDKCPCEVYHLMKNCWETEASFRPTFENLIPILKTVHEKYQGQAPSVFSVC

As to `C=CC(=O)Nc1cccc(-c2c[nH]c3ncc(C(=O)NC4CCCC4)cc23)c1` [Compound 11a, 3-(3-acrylamidophenyl)-N-cyclopentyl-1H-pyrrolo[2,3-b]pyridine-5-carboxamide], the IC50 stood at 2070 ± 32 nM in data set [1] and 6070 ± 1830 nM in data set [2]. In data set [3], the “activity at 200 nM on kinases harboring an αD-1 cysteine” value is recorded as “did not show substantial activity”.
For `C=CC(=O)Nc1cccc(-c2c[nH]c3ncc(C(N)=O)cc23)c1` [Compound 10a, 3-(3-acrylamidophenyl)-1H-pyrrolo[2,3-b]pyridine-5-carboxamide], the IC50 against JAK1 came to 460 nM; at TYK2, 1900 nM; on JAK2 it was 1120 nM; in data set [1], 283 ± 24 nM; in data set [2], 765 ± 283 nM. Further, at ITK, the remaining activity at 0.2 µM is 90.8%.
As for `C=CC(=O)Nc1cccc(-c2c[nH]c3ncccc23)c1` [Compound 9a, N-(3-(1H-pyrrolo[2,3-b]pyridin-3-yl)phenyl)acrylamide], the IC50 came out at 2970 nM on JAK1; 5540 nM against TYK2; 3580 nM at JAK2; 15 ± 2 nM in data set [1]; 26 ± 11 nM in data set [2]. Moreover, the remaining activity at 0.2 µM on ITK was 88.1%.
`C=CC(=O)Nc1cccc(-c2c[nH]c3ncc(NC(=O)c4cccs4)cc23)c1` [Compound 12c, N-(3-(3-acrylamidophenyl)-1H-pyrrolo[2,3-b]pyridin-5-yl)thiophene-2-carboxamide]: the half-life at 25 µM with glutathione (GSH) is 9.98 h. The remaining activity at 0.2 µM on ITK was 94%. For the same compound, the half-inhibitory concentration (IC50) amounted to 9 ± 1 nM in data set [1] and 3 ± 1 nM in data set [2].
For the compound `CCC(=O)Nc1cccc(-c2c[nH]c3ncc(NC(=O)C4CCCC4)cc23)c1` [Compound 12b, N-(3-(3-propionamidophenyl)-1H-pyrrolo[2,3-b]pyridin-5-yl)cyclopentanecarboxamide], the IC50 in data set [1] is 8210 ± 3460 nM; in data set [2], over 10000 nM.
